The source of these data is ChEMBL document CHEMBL1151933, “Identification of a disruptor of the MDM2-p53 protein-protein interaction facilitated by high-throughput in silico docking” (Bioorg Med Chem Lett, 2009).

Assay [1] can be described thus: Inhibition of GST-tagged MDM2 (1-150) / full-length His6-tagged p53 interaction expressed in Escherichia coli by alphascreen assay. Background: Bead proximity is the source of the signal in Alpha formats.
The nature of assay [2]: Inhibition of GST-tagged MDM2/His6-tagged p53 interaction at 100 uM by ELISA. In general terms: An ELISA detects its analyte on a solid surface through an enzyme-linked reagent.
Assay [3] in a line: Inhibition of GST-tagged MDM2/His6-tagged p53 interaction by ELISA.

As a reminder, the IC50 is the midpoint of a concentration-inhibition curve. Low readings indicate inhibition by little substance, high ones a need for much substance. A word on the inhibition: it is the drop in the measured response relative to a control, in per cent. Higher therefore signals strong suppression.

`COc1ccc(C2=N[C@@H](c3ccc(Cl)cc3)[C@@H](c3ccc(Cl)cc3)N2C(=O)N2CCNC(=O)C2)c(OC(C)C)c1` [NUTLIN-3]: in assay [1], the IC50 was 0.25 µM.

In assay [2], `c1ccc(/C(=N/Nc2nc3ccccc3s2)c2ccccn2)cc1.c1ccc(/C(=N\Nc2nc3ccccc3s2)c2ccccn2)cc1` (mixture of isomers; form 2) [listing 1 of 2 here] showed an inhibition of over 50%. Consider `c1ccc(/C(=N/Nc2nc3ccccc3s2)c2ccccn2)cc1.c1ccc(/C(=N\Nc2nc3ccccc3s2)c2ccccn2)cc1` (mixture of isomers; form 1), for which the midpoint of inhibition in assay [1], the IC50, lay at 13 µM.

As to `c1ccc(/C(=N/Nc2nc3ccccc3s2)c2ccccn2)cc1.c1ccc(/C(=N\Nc2nc3ccccc3s2)c2ccccn2)cc1` (mixture of isomers; form 2) [listing 2 of 2 here], the IC50 was 25 µM in assay [1] and 20 µM in assay [3].
